Paper PMC6576746, “Rational discovery of dual-indication multi-target PDE/Kinase inhibitor for precision anti-cancer therapy using structural systems pharmacology” (PLoS Computational Biology, 2019)

Assays:
Experiment in all cases: cells
Parameters in all cases: species or system panel of human cancer cell lines; Eurofins OncoPanel proliferation; nuclei count by high-content fluorescence imaging, 10-point dose response
[1] = system: SW900; settings: Homo sapiens, SW900, 72 h, cell count, 3 days
How it was run: (§1)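 Ten half-log concentrations from 100 μM (0.1% DMSO max) applied one day post-seeding, 3-day exposure at 37°C; untreated time-zero plate for GI50. Readout is nuclear cell count by automated fluorescence imaging, giving EC50, IC50, GI50 and 0–10 activity area.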

[2] = system: MT-3; settings: MT-3, 72 h, cell count, 3 days
How it was run: as §1

[3] = system: Daoy; settings: Homo sapiens, Daoy, 72 h, cell count, 3 days
How it was run: as §1

[4] = system: CHP-212; settings: Homo sapiens, CHP-212, 72 h, cell count, 3 days
How it was run: as §1

[5] = system: Ramos (RA 1); settings: Homo sapiens, Ramos, 72 h, cell count, 3 days
How it was run: as §1

[6] = system: J-RT3-T3-5; settings: Homo sapiens, J-RT3-T3-5, 72 h, cell count, 3 days
How it was run: as §1

[7] = system: CaOV3; settings: Homo sapiens, Caov-3, 72 h, cell count, 3 days
How it was run: as §1

[8] = system: CAL-62; settings: Homo sapiens, CAL-62, 72 h, cell count, 3 days
How it was run: as §1

[9] = system: L-428; settings: Homo sapiens, L-428, 72 h, cell count, 3 days
How it was run: as §1

[10] = system: SR; settings: Homo sapiens, SR, 72 h, cell count, 3 days
How it was run: as §1

[11] = system: Raji; settings: Homo sapiens, Raji, 72 h, cell count, 3 days
How it was run: as §1

[12] = system: Hs 445; settings: Hs 445, 72 h, cell count, 3 days
How it was run: as §1

[13] = system: Detroit 562; settings: Homo sapiens, Detroit 562, 72 h, cell count, 3 days
How it was run: as §1

[14] = system: BxPC-3; settings: Homo sapiens, BXPC-3, 72 h, cell count, 3 days
How it was run: as §1

[15] = 50% of maximum possible response

Compound `C[C@@H]1CC(=O)NN=C1c1ccc(NN=C(C#N)C#N)cc1` [levosimendan] has an IC50 [1, 15] of 67.6 µM, a GI50 ([1]; corrected for time zero) of 35.9 µM and an EC50 ([1]; curve inflection point) of 67.6 µM. The IC50 [2, 15] was greater than 100 µM, the GI50 ([2]; corrected for time zero) was greater than 100 µM and the EC50 ([2]; curve inflection point) was greater than 100 µM. It also gave an IC50 [3, 15] of 16.7 µM, a GI50 ([3]; corrected for time zero) of 13 µM and an EC50 ([3]; curve inflection point) of 16.7 µM. It also gave an IC50 [4, 15] of 84.9 µM, a GI50 ([4]; corrected for time zero) of 49.1 µM and an EC50 ([4]; curve inflection point) of 84.9 µM. The IC50 [5, 15] was 24.1 µM, the GI50 ([5]; corrected for time zero) was 21.2 µM and the EC50 ([5]; curve inflection point) was 24.1 µM. It also gave an IC50 [6, 15] of 24.4 µM, a GI50 ([6]; corrected for time zero) of 18.4 µM and an EC50 ([6]; curve inflection point) of 24.4 µM. It also gave an IC50 [7, 15] of 37.4 µM, a GI50 ([7]; corrected for time zero) of 21.4 µM and an EC50 ([7]; curve inflection point) of 37.4 µM. The IC50 [8, 15] was 12.3 µM, the GI50 ([8]; corrected for time zero) was 11.4 µM and the EC50 ([8]; curve inflection point) was 12.1 µM. The IC50 [9, 15] was 69.2 µM, the GI50 ([9]; corrected for time zero) was 53.1 µM and the EC50 ([9]; curve inflection point) was 69.2 µM. The IC50 [10, 15] was 16.1 µM, the GI50 ([10]; corrected for time zero) was 14.7 µM and the EC50 ([10]; curve inflection point) was 15.6 µM. It also gave an IC50 [11, 15] of 69.1 µM, a GI50 ([11]; corrected for time zero) of 63.4 µM and an EC50 ([11]; curve inflection point) of 69.1 µM. It also gave an IC50 [12, 15] of 30.6 µM, a GI50 ([12]; corrected for time zero) of 21.8 µM and an EC50 ([12]; curve inflection point) of 26.3 µM. It also gave an IC50 [13, 15] of 50.9 µM, a GI50 ([13]; corrected for time zero) of 28.4 µM and an EC50 ([13]; curve inflection point) of 50.9 µM. For the same compound, the IC50 [14, 15] was 89.2 µM, the GI50 ([14]; corrected for time zero) was 78 µM and the EC50 ([14]; curve inflection point) was 89.2 µM.
